This is an account of results in PMC9052077 (Computational and Structural Biotechnology Journal, 2022).

The test relates to HK-2 cells. Description: cells. The settings on record: for IC50 value for HK-2 cells: 24 h. Format: cell-based, human.
Setting [1] is: Homo sapiens, HK-2, 24 h, HK-2 cells, 24 h exposure, SRB assay, Table 1.
The mark [2] stands for this setting: Homo sapiens, HK-2, read-out: Activity IC50 (μM), HK-2 cells, Table 4.
Setting [3] is: Homo sapiens, HK-2, read-out: Activity pIC50, HK-2 cells (converted), Table 4.
Setting [4] is: Homo sapiens, HK-2, read-out: Bioactivity (μM), HK-2 cells, Table 3.

Molecules are shown by their SMILES. Entries after “also recorded” stand apart in the source; their conditions may differ. Read-outs that look alike come from different tables or passages of the source.

Consider `C[C@@H]1Cc2c(Cl)cc(C(=O)N[C@@H](Cc3ccccc3)C(=O)O)c(O)c2C(=O)O1` [Compound 3, Ochratoxin A], for which the “IC50 value for HK-2 cells” value (HK-2 cells, SRB assay) is “micromolar of tens digit”. Also, the IC50 is, setting by setting: under setting [1], 46.1 µM; under setting [2], 46.1 µM; under setting [3], 45.7 µM; under setting [4], 46.1 µM.

Regarding `C[C@@H](NCCCc1cccc(C(F)(F)F)c1)c1cccc2ccccc12` [Compound 8, Cinacalcet], the “IC50 value for HK-2 cells” value (HK-2 cells, SRB assay) is “micromolar of tens digit”. Moreover, the IC50 by setting is: under setting [1], 17.1 µM; under setting [2], 17.1 µM; under setting [3], 17 µM; under setting [4], 17.1 µM.

Take `C/C=C(/C)C(=O)O[C@H]1C(C)=C2[C@H]([C@@H]1OC(=O)CCCCCCC)[C@@](C)(OC(C)=O)C[C@H](OC(=O)CCC)[C@@]1(O)[C@H]2OC(=O)[C@@]1(C)O` [Compound 1, Thapsigargin]: the IC50 under setting [1] turned out to be 0.18 µM, the IC50 under setting [2] came out at 0.18 µM, the IC50 under setting [3] is 0.182 µM and the IC50 under setting [4] amounted to 0.18 µM.

Take `N.N.[Cl][Pt][Cl]` [Compound 12, Cisplatin]: the “IC50 value for HK-2 cells” value (HK-2 cells, SRB assay) is given as “micromolar of tens digit”. Further, the IC50 reads like this: (HK-2 cells, 24 h exposure, SRB assay, Table 1) 25.4 µM; (read-out: Activity IC50, HK-2 cells, Table 4) 25.4 µM; (read-out: Bioactivity, HK-2 cells, Table 3) 25.4 µM. In addition, the “Activity pIC50” value (HK-2 cells, Table 4) worked out at 4.59. Also, the “Actual value (pIC50)” value (HK-2 cells, converted from IC50 by eq 2, Table 3) was determined as 4.59.

For the molecule `C=CC[C@@H]1/C=C(\C)C[C@H](C)C[C@H](OC)[C@H]2O[C@@](O)(C(=O)C(=O)N3CCCC[C@H]3C(=O)O[C@H](/C(C)=C/[C@@H]3CC[C@@H](O)[C@H](OC)C3)[C@H](C)[C@@H](O)CC1=O)[C@H](C)C[C@@H]2OC` [Compound 9, Tacrolimus], the “IC50 value for HK-2 cells” value (HK-2 cells, SRB assay) is “micromolar of tens digit”. In addition, the IC50 by setting is: under setting [1], 49.4 µM; under setting [2], 49.4 µM; under setting [3], 49 µM; under setting [4], 49.4 µM.

Turning to `C[C@@H]1[C@H](O)[C@@H](C)/C=C/C=C/C=C/C=C/C=C/C=C/C=C/[C@H](O[C@@H]2O[C@H](C)[C@@H](O)[C@H](N)[C@@H]2O)C[C@@H]2O[C@](O)(C[C@@H](O)C[C@@H](O)[C@H](O)CC[C@@H](O)C[C@@H](O)CC(=O)O[C@H]1C)C[C@H](O)[C@H]2C(=O)O` [Compound 13, Amphotericin B], the “IC50 value for HK-2 cells” value (HK-2 cells, SRB assay) is on record as “unit digits”. The IC50 by setting is: under setting [1], 3.7 µM; under setting [2], 3.7 µM; under setting [3], 3.72 µM; under setting [4], 3.7 µM.

As to `CO[C@@]12[C@H](COC(N)=O)C3=C(C(=O)C(C)=C(N)C3=O)N1C[C@@H]1N[C@@H]12` [Compound 10, Mitomycin C], the “IC50 value for HK-2 cells” value (HK-2 cells, SRB assay) was “unit digits; also recorded: micromolar of tens digit”. Also, the IC50 is 5.04 µM under setting [1], 5.04 µM under setting [2], 5.01 µM under setting [3] and 5.04 µM under setting [4].

Consider `COc1ccnc(C[S+]([O-])c2nc3ccc(OC(F)F)cc3[nH]2)c1OC` (stereo not drawn) [Compound 11, Pantoprazole], for which the IC50 is 300 µM under setting [1], 300 µM under setting [2], 302 µM under setting [3] and 300 µM under setting [4].
